Measurements published in ChEMBL document CHEMBL3044651, “Synthesis, fungicidal activity, and structure-activity relationship of spiro-compounds containing macrolactam (macrolactone) and thiadiazoline rings” (J Agric Food Chem, 2010).
≈ marks a conversion by molar mass, not a printed value.

Experiments:
Format in all cases: functional, organism-based
Phomopsis asparagi = assay: Antifungal activity against Phomopsis asparagi by mycelium growth rate test
Pyricularia oryzae = assay: Antifungal activity against Magnaporthe oryzae by mycelium growth rate test
Rhizoctonia solani = assay: Antifungal activity against Rhizoctonia solani Kuhn by mycelium growth rate test
Sclerotinia sclerotiorum = assay: Antifungal activity against Sclerotinia sclerotiorum by mycelium growth rate test
Botrytis cinerea = assay: Antifungal activity against Botryotinia fuckeliana by mycelium growth rate test

Compound	EC50 (Phomopsis asparagi)	EC50 (Pyricularia oryzae)	EC50 (Rhizoctonia solani)	EC50 (Sclerotinia sclerotiorum)	EC50 (Botrytis cinerea)
Cc1ccc(C)c(/N=C2/N=NC3(CCCCCCCCCCC(=O)NCCC3)S2)c1 (stereo not given)	16.4 µg/mL (≈ 38.3 µM)	86.6 µg/mL (≈ 202 µM)	5.62 µg/mL (≈ 13.1 µM)	34.3 µg/mL (≈ 80 µM)	18.6 µg/mL (≈ 43.3 µM)
Cc1ccc(/N=C2/N=NC3(CCCCCCCCCCC(=O)NCCC3)S2)c(C)c1 (stereo not given)	5.26 µg/mL (≈ 12.3 µM)	30.9 µg/mL (≈ 72.1 µM)	26.8 µg/mL (≈ 62.4 µM)	55.7 µg/mL (≈ 130 µM)	9.63 µg/mL (≈ 22.5 µM)
COc1ccc(/N=C2/N=NC3(CCCCCCCCCCC(=O)NCCC3)S2)cc1 (stereo not given)	20.6 µg/mL (≈ 47.7 µM)	57.8 µg/mL (≈ 134 µM)	93 µg/mL (≈ 216 µM)	87.2 µg/mL (≈ 203 µM)	6.47 µg/mL (≈ 15 µM)
O=C1CCCCCCCCCCC2(CCCN1)N=N/C(=N/c1cc(Cl)ccc1Cl)S2 (stereo not given)	222 µg/mL (≈ 472 µM)	1.11 µg/mL (≈ 2.36 µM)	41.8 µg/mL (≈ 89 µM)	109 µg/mL (≈ 233 µM)	29.6 µg/mL (≈ 63 µM)
O=C1CCCCCCCCCCC2(CCCO1)N=N/C(=N/c1ccc(Cl)cc1)S2 (stereo not given)	42.5 µg/mL (≈ 97.4 µM)	338 µg/mL (≈ 776 µM)	126 µg/mL (≈ 290 µM)	59.9 µg/mL (≈ 137 µM)	49.9 µg/mL (≈ 115 µM)
O=C1CCCCCCCCCCC2(CCCN1)N=N/C(=N/c1ccc(Cl)c(Cl)c1)S2 (stereo not given)	9.02 µg/mL (≈ 19.2 µM)	0.72 µg/mL (≈ 1.53 µM)	36.8 µg/mL (≈ 78.4 µM)	15 µg/mL (≈ 32 µM)	34.2 µg/mL (≈ 72.9 µM)
Cc1ccc(/N=C2/N=NC3(CCCCCCCCCCC(=O)NCCC3)S2)cc1 (stereo not given)	14.5 µg/mL (≈ 35 µM)	139 µg/mL (≈ 335 µM)	71.8 µg/mL (≈ 173 µM)	34.1 µg/mL (≈ 82.2 µM)	25.1 µg/mL (≈ 60.5 µM)
N#Cc1c(Cl)c(Cl)c(Cl)c(C#N)c1Cl [CHLOROTHALONIL]	4.35 µg/mL (≈ 16.4 µM)	–	–	0.41 µg/mL (≈ 1.54 µM)	–
CN(C)C(=S)SSC(=S)N(C)C [THIRAM]	–	–	0.9 µg/mL (≈ 3.74 µM)	–	–
O=C1CCCCCCCCCCC2(CCCN1)N=N/C(=N/c1ccccc1)S2 (stereo not given)	14.2 µg/mL (≈ 35.4 µM)	41.5 µg/mL (≈ 104 µM)	42.1 µg/mL (≈ 105 µM)	9.92 µg/mL (≈ 24.8 µM)	5.01 µg/mL (≈ 12.5 µM)
O=C1CCCCCCCCCCC2(CCCO1)N=N/C(=N/c1ccccc1Br)S2 (stereo not given)	53.5 µg/mL (≈ 111 µM)	246 µg/mL (≈ 512 µM)	208 µg/mL (≈ 432 µM)	205 µg/mL (≈ 426 µM)	36.4 µg/mL (≈ 75.8 µM)
O=C1CCCCCCCCCCC2(CCCN1)N=N/C(=N/c1ccccc1Br)S2 (stereo not given)	60.3 µg/mL (≈ 126 µM)	57.6 µg/mL (≈ 120 µM)	56.1 µg/mL (≈ 117 µM)	533 µg/mL (≈ 1110 µM)	19.9 µg/mL (≈ 41.4 µM)
COc1ccccc1/N=C1/N=NC2(CCCCCCCCCCC(=O)NCCC2)S1 (stereo not given)	517 µg/mL (≈ 1200 µM)	398 µg/mL (≈ 924 µM)	37.9 µg/mL (≈ 88 µM)	21.1 µg/mL (≈ 49 µM)	21.8 µg/mL (≈ 50.7 µM)
Cc1cccc(/N=C2/N=NC3(CCCCCCCCCCC(=O)NCCC3)S2)c1 (stereo not given)	9.67 µg/mL (≈ 23.3 µM)	63.2 µg/mL (≈ 152 µM)	30.7 µg/mL (≈ 74.1 µM)	4.42 µg/mL (≈ 10.7 µM)	6.42 µg/mL (≈ 15.5 µM)
O=C1CCCCCCCCCCC2(CCCN1)N=N/C(=N/c1ccccc1Cl)S2 (stereo not given)	24.5 µg/mL (≈ 56.3 µM)	41.5 µg/mL (≈ 95.4 µM)	31.8 µg/mL (≈ 73.1 µM)	242 µg/mL (≈ 555 µM)	14.9 µg/mL (≈ 34.2 µM)
Cc1ccccc1/N=C1/N=NC2(CCCCCCCCCCC(=O)NCCC2)S1 (stereo not given)	73.8 µg/mL (≈ 178 µM)	78.4 µg/mL (≈ 189 µM)	125 µg/mL (≈ 301 µM)	375 µg/mL (≈ 905 µM)	4.21 µg/mL (≈ 10.2 µM)
CC(C)OC(=O)C(C(=O)OC(C)C)=C1SCCS1 [ISOPROTHIOLANE]	–	7.19 µg/mL (≈ 24.8 µM)	–	–	–
O=C1CCCCCCCCCCC2(CCCN1)N=N/C(=N/c1ccc(Cl)cc1)S2 (stereo not given)	102 µg/mL (≈ 234 µM)	0.054 µg/mL (≈ 0.124 µM)	39.5 µg/mL (≈ 90.8 µM)	48.2 µg/mL (≈ 111 µM)	18.7 µg/mL (≈ 42.9 µM)
Cc1cc(C)nc(Nc2ccccc2)n1 [PYRIMETHANIL]	–	–	–	–	0.14 µg/mL (≈ 0.703 µM)
O=C1CCCCCCCCCCC2(CCCN1)N=N/C(=N/Cc1ccccc1)S2 (stereo not given)	21.3 µg/mL (≈ 51.4 µM)	117 µg/mL (≈ 282 µM)	23.5 µg/mL (≈ 56.7 µM)	8.32 µg/mL (≈ 20.1 µM)	14.4 µg/mL (≈ 34.8 µM)
Cc1cccc(/N=C2/N=NC3(CCCCCCCCCCC(=O)NCCC3)S2)c1C (stereo not given)	14.8 µg/mL (≈ 34.6 µM)	199 µg/mL (≈ 465 µM)	22.4 µg/mL (≈ 52.2 µM)	36.5 µg/mL (≈ 85.2 µM)	22.6 µg/mL (≈ 52.7 µM)
O=C1CCCCCCCCCCC2(CCCO1)N=N/C(=N/c1ccccc1Cl)S2 (stereo not given)	116 µg/mL (≈ 267 µM)	211 µg/mL (≈ 485 µM)	159 µg/mL (≈ 365 µM)	169 µg/mL (≈ 388 µM)	43.8 µg/mL (≈ 100 µM)
Cc1ccc(C)c(/N=C2/N=NC3(CCCCCCCCCCC(=O)OCCC3)S2)c1 (stereo not given)	208 µg/mL (≈ 485 µM)	3120 µg/mL (≈ 7270 µM)	422 µg/mL (≈ 982 µM)	163 µg/mL (≈ 379 µM)	126 µg/mL (≈ 294 µM)
O=C1CCCCCCCCCCC2(CCCO1)N=N/C(=N/c1ccc(Br)cc1)S2 (stereo not given)	29.2 µg/mL (≈ 60.8 µM)	338 µg/mL (≈ 704 µM)	17.1 µg/mL (≈ 35.6 µM)	38.3 µg/mL (≈ 79.7 µM)	49.9 µg/mL (≈ 104 µM)
O=C1CCCCCCCCCCC2(CCCN1)N=N/C(=N/c1cccc3ccccc13)S2 (stereo not given)	46.1 µg/mL (≈ 102 µM)	196 µg/mL (≈ 434 µM)	17.8 µg/mL (≈ 39.5 µM)	767 µg/mL (≈ 1700 µM)	15.7 µg/mL (≈ 34.9 µM)
